Results taken from US20080318911A1, “20-Cyclopropyl, 26,27-Alkyl/Haloalkyl Vitamin D3 Compounds and Methods of Use Thereof” (BIOXELL S.P.A., priority 2004, published 2008).

Legend:
[1] = tested on: IFN-γ production by allogeneic PBMC; assay: IFN-γ production in the mixed leukocyte response (MLR); type: cell-based; conditions: 120 h; MLR of allogeneic PBMC, 5 days, ELISA; read-out: INF-γ IC50
Description: Immature dendritic cells (DC) were prepared as described in Romani, N. et al. (Romani, N. et al. (1996) J. Immunol. Meth. 196:137). IFN-γ production by allogeneic T cell activation in the mixed leukocyte response (MLR) was determined as described in Penna, G., et al., J Immunol., 164: 2405-2411 (2000).
Briefly, peripheral blood mononuclear cells (PBMC) were separated from buffy coats by Ficoll gradient and the same number (3×10^5) of allogeneic PBMC from 2 different donors were co-cultured in 96-well flat-bottom plates. The vitamin D3 compounds were added to each of the cultures.

RT112 = assay: Proliferation assay using bladder cancer cell lines: RT112; type: cell-based, human; conditions: Homo sapiens, RT-112; 72 h culture, CyQuant proliferation assay
Description: (§1) Bladder cancer cell lines (T24, RT112, HT1376 and RT4 are human bladder cancer cell lines; NHEK are normal human keratinocytes) were obtained from the European Collection of Cell Cultures (Salisbury, UK). Cells were plated at 3×10^3 per well, in flat bottomed 96-well plates in 100 μl of DMEM medium containing: 5% Fetal Clone 1,50 μg/l gentamicin, 1 mM sodium pyruvate and 1% non-essential amino acids. After culturing for 24 h at 37° C. in 5% CO2, to allow cells to adhere to the plates, VDR ligands (compounds (1)-(14)) were added at concentrations ranging from 100 μM to 0.3 μM in 100 μl of above-mentioned complete medium. After a further 72 h of culture, cell proliferation was measured using a fluorescence-based proliferation assay kit. (CyQuant Cell Proliferation Assay Kit, Molecular Probes, Eugene, Oreg., USA). The IC50 was calculated from the regression curve of the titration data.

[2] = tested on: Renin mRNA in As4.1 cells; assay: Renin mRNA inhibition in murine juxtaglomerular cell line As4.1; type: cell-based; conditions: Mus musculus, 24 h, real time PCR normalized versus β-actin, read-out: Renin mRNA inh.As4.1/wt
Description: As4.1 cells (80% subconfluent) were treated in complete medium with compounds of the invention at 10^−8, 10^−9 and 10^−10 M for 24 h. Total RNA was extracted using RNeasy Mini kit (Qiagen); treated with DNase I (Qiagen) and Reverse Transcription Reagent (Applied Biosystems) with Random Examers were used for reverse transcription according to the manufacturers' instructions. Real Time PCR analysis was performed in multiplex using commercially available β-actin VIC-conjugated probe (cat. n. 4352341E, Applied Biosystems) and custom designed mRENIN FAM-conjugated probe (Assay by Design, Applied Biosystems; Forward: […]; Reverse: […]; Probe: FAM-[…]-MGB). Reactions were performed in a 25 μL volume containing 12,5 μl 2× Master Mix (Applied Biosystems), 10 ng/reaction/well cDNA, and 2,5 μM each gene-specific primer. An ABI PRISM 7700 analyzer (Applied Biosystems) was used at 50° C. for 2 minutes and 95° C. for 10 minutes, followed by 40 cycles at 95° C. for 15 seconds and 60° C. for 1 minute. Cycle threshold (Ct) values were exported onto Excel worksheets for analysis. Test cDNA results were normalized versus mouse β-actin housekeeping gene. Fold differences in gene expression between the subtracted versus the unsubtracted populations were expressed using the method of 2^−ΔΔCt. (Table 6)

[3] = Determination of Maximum Tolerated Dose (MTD) in mice; conditions: mouse, in vivo, po; female C57BL/6 mice, p.o. daily for four days; highest dose without hypercalcemia (serum calcium >10.7 mg/dl)
RT4 = assay: Proliferation assay using bladder cancer cell lines: RT4; type: cell-based, human; conditions: Homo sapiens, RT-4; 72 h culture, CyQuant proliferation assay
Description: as §1

NHEK = assay: Proliferation assay: NHEK normal human keratinocytes; type: cell-based; conditions: 72 h culture, CyQuant proliferation assay
Description: as §1

[4] = tested on: human stromal bladder cells; assay: Basal growth of human stromal bladder cells; type: cell-based; conditions: FIG. 2
Text: The Inventors confirmed the presence of vitamin D receptors (VDRs), as previously reported in the literature, on these cells (see below in FIG. 1).
The maximum tolerated dose (MTD) in rats is also listed for each compound (Table 5).

Structure (SMILES)	IC50 [1] [nM]	IC50 (RT112) [µM]	IC50 [2] [nM]	MTD at 4 days [3] [µg/kg]	IC50 (RT4) [µM]	IC50 (NHEK) [µM]	inhibiting the basal growth of bladder cells [4]
C=C1/C(=C\C=C2/CCC[C@]3(C)C(C4(C/C=C/C(O)(C(F)(F)F)C(F)(F)F)CC4)=CCC23)CC(O)C[C@@H]1F (stereo partly drawn) [Compound 13, 1α-Fluoro-25-hydroxy-16,23E-diene-20-cyclopropyl-26,27-hexafluoro-cholecalciferol]	0.065	17	9.5	3	3.6	5.1	
C=C1/C(=C\C=C2/CCC[C@]3(C)C(C4(CCCC(C)(C)O)CC4)=CCC23)CC(O)C[C@@H]1O (stereo partly drawn) [Compound 10, 1α,25-Dihydroxy-16-ene-20-cyclopropyl-cholecalciferol]		27.6	26.2	1	2	5.2	effective
C=C1/C(=C\C=C2/CCC[C@]3(C)C(C4(C/C=C\C(O)(C(F)(F)F)C(F)(F)F)CC4)=CCC23)CC(O)C[C@@H]1F (stereo partly drawn) [Compound 14, 1α-Fluoro-25-hydroxy-16,23Z-diene-20-cyclopropyl-26,27-hexafluoro-cholecalciferol]	0.081	21	6	1	3.1	4	
CC(C)(O)C#CCC1(C2=CCC3/C(=C/C=C4/CC(O)C[C@H](O)C4)CCC[C@]23C)CC1 (stereo partly drawn) [Compound 2, 1α,25-Dihydroxy-16-ene-20-cyclopropyl-23,24-yne-19-nor-cholecalciferol]	0.0254	> 30	97.2	10	6.3		
C=C1/C(=C\C=C2/CCC[C@]3(C)C(C4(CC#CC(O)(C(F)(F)F)C(F)(F)F)CC4)=CCC23)CC(O)C[C@@H]1O (stereo partly drawn) [Compound 4, 1α,25-Dihydroxy-16-ene-20-cyclopropyl-23,24-yne-26,27 hexafluoro-cholecalciferol]	0.045	13.8	2.99	0.3	1.7	2	effective
C=C1/C(=C\C=C2/CCC[C@]3(C)C(C4(CC#CC(C)(C)O)CC4)=CCC23)CC(O)C[C@@H]1F (stereo partly drawn) [Compound 11, 1α-Fluoro-25-hydroxy-16-ene-23-yne-20-cyclopropyl-cholecalciferol]	0.0164	> 30	303	100	16.7		
C=C1/C(=C\C=C2/CCC[C@]3(C)C(C4(C/C=C/C(O)(C(F)(F)F)C(F)(F)F)CC4)=CCC23)CC(O)C[C@@H]1O (stereo partly drawn) [Compound 6, 1α,25-Dihydroxy-16-ene-20-cyclopropyl-23,24-E-ene-26,27-hexafluoro-cholecalciferol]	0.04	10.6	0.547	0.3	2.3	5.8	effective
C[C@]12CCC/C(=C\C=C3\CC(O)C[C@H](O)C3)C1CC=C2C1(C/C=C/C(O)(C(F)(F)F)C(F)(F)F)CC1 (stereo partly drawn) [Compound 5, 1α,25-Dihydroxy-16-ene-20-cyclopropyl-23,24-E-ene-26,27-hexafluoro-19-nor-cholecalciferol]	0.012	14.5	4.4		4.6	4.9	
C=C1/C(=C\C=C2/CCC[C@]3(C)C(C4(CC#CC(C)(C)O)CC4)=CCC23)CC(O)C[C@@H]1O (stereo partly drawn) [Compound 1, 1α,25-Dihydroxy-16-ene-20-cyclopropyl-23,24-yne-cholecalciferol]	0.0336	> 30	9.42	10	10.6		
C=C1/C(=C\C=C2/CCC[C@]3(C)C(C4(CC#CC(O)(C(F)(F)F)C(F)(F)F)CC4)=CCC23)CC(O)C[C@@H]1F (stereo partly drawn) [Compound 12, 1α-Fluoro-25-hydroxy-16-ene-20-cyclopropyl-23-yne-26,27-hexafluoro-cholecalciferol]	0.585	16.9	9.73	0.3	3.6	1	
